From US5958416A, “Heat shock protein peptides and methods for modulating autoimmune central nervous system disease” (Regents of the University of Minnesota, priority 1995, dated 1999)
Entries after “also recorded” stand apart in the source; their conditions may differ. Read-outs that look alike come from different tables or passages of the source. No end group written: not given here.

Tests used:
[1] = test system: IgG antibodies in CSF and sera of MS and OND patients; test: Dot-blot analysis of patient CSF and sera for antibodies to CNP 173-184 peptide; format: binding, human
Experimental: Cerebrospinal fluid (CSF) and sera from MS patients and controls were analyzed for antibodies to the peptide derived from CNP isoform 2 (corresponding to amino acids 173-184) using dot-blot analyses. Samples from nine MS patients and five patients with other neurologic diseases (OND) were analyzed. The CNP 173-184 peptide coupled to BSA was adsorbed onto nitrocellulose membranes. Control wells received BSA alone. Two dilutions of paired spinal fluids and sera were added to the wells and the amount of antibody binding determined using peroxidase labeled anti-human IgG and an enhanced chemiluminescent assay (ECL Western Blotting Kit; Amersham International, Plc., Buckinghamshire, England). Using the public domain program, Image 1.40 (available from NIH), the integrated densities of the dots in the CNP 173-184 peptide wells and BSA wells were determined.

[2] = test system: experimental autoimmune encephalomyelitis (EAE); test: Modulation of EAE by pre-immunization with CNP 173-184 peptide-KLH (Example 4); format: in vivo, Lewis rats
[3] = test system: experimental autoimmune encephalomyelitis (EAE); test: Modulation of EAE by pre-immunization with HSP65 peptides not coupled to KLH (Example 9); format: in vivo, Lewis rats; conditions: 50 μg peptide not coupled to KLH, s.c., in IFA; 1 mg GPSC in CFA four weeks later
[4] = test system: Peripheral blood lymphocytes (PBL); format: cell-based, human
[5] = positive/tested, peptide coupled to BSA on nitrocellulose, data not shown
[6] = chi-square p, PBL, listed as #6

## Leu-Lys-Lys-Leu-Lys-Pro-Gly-Leu-Glu-Lys-Asp-Phe (LKKLKPGLEKDF; also: coupled to BSA) [CNP 173-184 peptide, coupled to BSA in blots]
[1]; MS CSF
  Integrated densities in peptide wells relative to BSA wells: approximately twofold higher
[1]; chi square analysis
  p, MS versus OND patients with CSF antibodies to the peptide: < 0.03
[1]; [5]
  CSF samples with antibodies to the peptide, MS patients: 5/9
  CSF samples with antibodies to the peptide, OND patients: 0/5
[1]; sera
  Number of MS patients with antibodies to the peptide in sera: 3
  Number of OND patients with antibodies to the peptide in sera: 1
[2]; 50 μg s.c. in IFA, GPSC in CFA five to six weeks later
  EAE after GPSC challenge, pre-immunization in IFA: suppression of EAE
[2]; day 13 post GPSC-CFA immunization
  p, difference in EAE severity between peptide-IFA and KLH-IFA pre-immunized rats: < 0.02

## lys-gly-tyr-ile-ser-gly-tyr-phe-val-thr-asp-ala-glu-arg-gln (KGYISGYFVTDAERQ) [Peptide #6]
[3]
  Protection against EAE after pre-immunization with the peptide: did protect against or decrease the symptoms of EAE; also recorded: significantly decreases both the incidence and severity of EAE; also recorded: protects rats against EAE
[4]; PBL from MS and OND patients, greater than two-fold above background considered significant
  T cell proliferative response elicited by the peptide: elicited specific T cell proliferative responses in some MS patients compared with OND patients
[4]; Pearson correlation, PBL
  Correlation of responsiveness to the peptide with responsiveness to M. tuberculosis, OND patients: No significant correlations
  p, correlation of responsiveness to the peptide with responsiveness to M. tuberculosis, DR2+ MS females: < 0.02
  p, correlation of responsiveness to the peptide with responsiveness to M. tuberculosis, DR2- MS males: < 0.01
  p, correlation of responsiveness to the peptide with responsiveness to M. tuberculosis, all MS patients: < 0.01
[4]; chi-square p, PBL
  Difference in frequency of proliferative response, Group A greater than Group B: MS F vs MS M: greater response
  Difference in frequency of proliferative response, Group A greater than Group B: MS F vs OND M: greater response
  Difference in frequency of proliferative response, Group A greater than Group B: MS F, DR2- VS MS M, DR2-: responded more strongly
  Difference in frequency of proliferative response, Group A greater than Group B: MS F, DR2- vs MS F, DR2+: N.S.
  Difference in frequency of proliferative response, Group A greater than Group B: MS M, DR2+ VS MS F, DR2+: N.S.
[4]; [6]
  Difference in frequency of proliferative response, Group A greater than Group B: MS F vs MS M: < 0.025
  Difference in frequency of proliferative response, Group A greater than Group B: MS F vs OND M: < 0.0005
  Difference in frequency of proliferative response, Group A greater than Group B: MS F, DR2- VS MS M, DR2-: < 0.05
